In US12049519B2, “Peptide for the delivery of anionic materials” (The Queen's University of Belfast, priority 2019, dated 2024):
Residues, ends and D or L forms follow the SMILES beside them.

How the values were obtained:
[1] = test system: MCF-7 breast cancer cells; experiment: Endosomal escape study: transfection with and without chloroquine; format: cell-based; conditions: N:P 10, with and without 10 μM chloroquine, cell line not given
Method: (§1) FIG. 6: Transfection efficiency of nanoparticles comprising pEGFP-N1 and Peptides 7 to 12 assessed in A) MCF-7 and B) MDA-MB-231 breast cancer cells with and without chloroquine, a reagent known to facilitate endosomal escape. Cells were transfected for 4 h with peptide/pEGFP-N1 nanoparticles at N:P 10. 10 μM chloroquine was added to cells in appropriate wells along with the nanoparticles. Following transfection, medium was replaced with DMEM supplemented with 10% FCS and incubated for 48 h before quantification of transfection efficiency by flow cytometry at 4% gating. […] Statistical analysis was carried out using an unpaired t test (*=P<0.05, ** =P<0.01, ***=P<0.001)
(§2) In some instances, cells were treated with chloroquine (a reagent known to facilitate endosomal escape) (FIG. 6). For endosomal escape studies, 1 mM chloroquine (Sigma-Aldrich, UK) was added to the cells immediately before transfection, giving a final concentration of 10 μM chloroquine in the nanoparticle transfection mix.

[2] = test system: MDA-MB-231 breast cancer cells; experiment: as above; format: cell-based; conditions: N:P 10, with and without 10 μM chloroquine, cell line not given
Method: as §1, §2

[3] = Nanoparticle hydrodynamic size, Malvern Zetasizer (DLS); format: physicochemical; conditions: low N:P ratios
Method: FIG. 3: Mean hydrodynamic size and zeta potential of nanoparticles prepared with pEGFP-N1 and A) Peptide 7, B) Peptide 8, C) Peptide 9, D) Peptide 10, E) Peptide 11 or F) Peptide 12 at a range of N:P ratios. For example, at an N:P ratio of 10 with Peptide 7, nanoparticles comprise 0.5 μg of pEGFP-N1 and 5.7 μg Peptide 7. Nanoparticles were made up to 50 μl with molecular grade water and incubated for 30 min at room temperature before hydrodynamic size and zeta potential were measured using a Malvern Zetasizer Nano ZS instrument.
Peptide complexes (an N:P ratio of 0) and composite complexes were prepared at a range of N:P ratios from 1 to 20 to complex 0.5 μg pEGFP-N1. For example, at an N:P ratio of 10 with Peptide 7, nanoparticles comprise 0.5 μg of pEGFP-N1 and 5.7 μg Peptide 7. Nanoparticles were made up to 50 μl with molecular grade water and incubated for 30 min at room temperature before a Malvern Zetasizer Nano ZS instrument with DTS software (Malvern Instruments, UK) was used to measure the mean hydrodynamic particle size of nanoparticles. A 40 μl disposable microcuvette was used to measure the mean size by number of nanoparticles formed by Dynamic Light Scattering (DLS) at 20° C. Results were reported as mean±SEM, and all measurements were performed in triplicate.

[4] = test system: pEGFP-N1; experiment: DNA complexation efficiency assay, Quant-iT PicoGreen; format: binding
Method: FIG. 2: DNA complexation efficiency assay using Quant-iT™ PicoGreen® reagent indicating the efficiency of A) Peptide 7, B) Peptide 8, C) Peptide 9, D) Peptide 10, E) Peptide 11 and F) Peptide 12 to complex 0.5 μg pEGFP-N1 (Accession Number: U55762.1) (a pDNA) at a range of N:P ratios. Peptide/pEGFP-N1 complexes were prepared at a range of N:P ratios from 1 to 20. 50 μl samples of each N:P ratio was pipetted into a 96-well plate with Quant-iT™ PicoGreen® reagent. Sample fluorescence was then analysed by excitation at 480 nm and the fluorescence emission intensity measured at 520 nm using a Synergy 2 Multi-Mode Microplate Reader. Fluorescence was then calculated as a percentage of the control and converted to the percentage DNA complexed.
Peptide complexes and composite complexes were prepared at a range of N:P ratios from 1 to 20 to complex 0.5 μg pEGFP-N1. Quant-iT™ PicoGreen® Reagent (Life Technologies, UK) was diluted 1:200 in TAE buffer and 50 μl was added to each 50 μl sample. Sample fluorescence was analysed by excitation at 480 nm and the fluorescence emission intensity measured at 520 nm using a Synergy 2 Multi-Mode Plate Reader. Fluorescence intensity of a naked pDNA control (an N:P ratio of 0) was taken as 100% fluorescence and 0% complexed, and any fluorescence detected from samples was taken to be un-complexed. […]

[5] = test system: MCF-7 breast cancer cells; experiment: Transfection with peptide/pEGFP-N1 nanoparticles, flow cytometry; format: cell-based; conditions: N:P ratios of 6 to 10
Method: (§3) FIG. 5: Transfection efficiency of nanoparticles comprising pEGFP-N1 and A) Peptide 7, B) Peptide 8, C) Peptide 9, D) Peptide 10, E) Peptide 11 and F) Peptide 12 assessed in MCF-7 and
(§4) MDA-MB-231 breast cancer cells. Cells were transfected for 4 h with peptide/pEGFP-N1 nanoparticles at a range of N:P ratios. Following transfection, medium was replaced with DMEM supplemented with 10% FCS and incubated for 48 h before quantification of transfection efficiency by flow cytometry at 4% gating.
(§5) In order to assess the ability of peptide and composite nanoparticles to transfect cells, transfections were carried out in 96-well tissue culture plates.
(§6) MCF-7 and MDA-MB-231 breast cancer cells were seeded at a density of 2.25×10^4 and 2.5×10^4 cells per well respectively, and allowed to adhere overnight at 37° C. with 5% CO2 (FIG. 5).
(§7) Medium was replaced with OptiMEM (Invitrogen, UK) 2 h prior to transfection and the cells returned to the incubator at 37° C. with 5% CO2. […]
(§8) Transfected cells were washed with phosphate buffered saline (PBS) and 2× trypsin used to detach cells at 37° C. in 5% CO2 atmosphere. […] A FACScalibur system (BD Bioscience, UK) or Accuri C6 Plus (BD Bioscience, UK) were used for the detection of green fluorescent protein (GFP) expressing cells at 4% gating (to reduce interference of auto-fluorescence) and results are reported as mean±SEM, n=3.

[6] = test system: MDA-MB-231 breast cancer cells; experiment: as above; format: cell-based; conditions: N:P ratios of 6 to 10
Method: as §3, §4, §5, §6, §7, §8

[7] = Cell viability, MTS assay (FIGS. 11 and 12B); format: cell-based; conditions: N:P ratio of 6 to 15; 24 h post transfection; relative to untreated cells
Method: (§9) FIG. 11: Cell viability of A) MCF-7 and MDA-MB-231 breast cancer cells, B) DU145 and PC-3 prostate cancer cells, and C) NCTC-929 fibroblast, HMEC-1 endothelial, and HaCaT keratinocyte cells following transfection with Peptide 10. Cells were transfected with Peptide 10 at a range of N:P ratios for 4 h before replacement with complete medium. After 24 h, cells were treated with MTS reagent for 2 h in dark conditions. A Bio-Tek Powerwave XS plate reader was then used to read absorbance at 490 nm with Gen5 software and any background absorbance was subtracted from readings. Untreated cells were considered to be 100% viable and viability under all conditions was calculated relative to this.
FIG. 12: Transfection efficiency and cell viability of nanoparticles comprising pEGFP-N1 and Peptide 10 assessed in ARPE human retinal cells. (A) Cells were transfected for 4 h with Peptide 10/pEGFP-N1 nanoparticles at a range of N:P ratios. Following transfection, medium was replaced with culture medium supplemented with 10% serum and incubated for 48 h before imaging using i) light and ii) fluorescence microscopy. Scale bar=400 μm. iii) Quantification of transfection efficiency was subsequently analysed by flow cytometry at 4% gating. […] A Bio-Tek Powerwave XS plate reader was then used to read absorbance at 490 nm with Gen5 software and any background absorbance was subtracted from readings. […]

[8] = test system: HaCaT keratinocyte cells; experiment: Cell viability, MTS assay; format: cell-based; conditions: N:P ratios of 15 and 20
Method: as §9
(§10) Cell viability was evaluated by MTS assay with CellTiter 96 AQueous One Solution Cell Proliferation Assay (Promega, UK). MDA-MB-231 and PC-3 cells were seeded at a density of 1.5×10^4 cells per well and MCF-7, and DU145cells seeded at 1.2×10^4 cells per well, ARPE, NCTC-929, HMEC-1, and HaCaT cells seeded at 1.0×10^4, and allowed to adhere in a 96 well plate. Cells were transfected CellTiter reagent was added to each well 24 h post transfection to give a final volume of 10% and returned to the incubator for 2 h. Absorbance was read at 490 nm using a Bio-Tek Powerwave XS plate reader with Gen5 software and any background absorbance was subtracted from readings. Cell viability was expressed as a percentage of the untreated control where the untreated control is considered to be 100% viable.

[9] = test system: breast and prostate cancer cell lines; experiment: Cell viability, MTS assay; format: cell-based; conditions: even at a high N:P ratio of 20
Method: as §9, §10

[10] = test system: HMEC-1 endothelial cells; experiment: Cell viability, MTS assay; format: cell-based; conditions: irrespective of the N:P ratio
Method: as §9, §10

[11] = test system: NCTC-929 fibroblast cells; experiment: Cell viability, MTS assay; format: cell-based; conditions: N:P ratios of 15 and 20
Method: as §9, §10

Compound: CRRRRWRRRRC [Peptide 11, comparative linear peptide, outside the scope of the invention]
- transfection regardless of chloroquine [1]: Very low
- transfection regardless of chloroquine [2]: Very low
- particle size as a function of N:P ratio [3]: large particles form at lower N:P ratios

Compound: CEHHRRRWRRRHHEC [Peptide 12, comparative linear peptide, outside the scope of the invention]
- maximum complexation efficiency [4]: 70%
- % transfection [5]: > 10%
- % transfection [6]: > 10%
- transfection regardless of chloroquine [1]: Very low
- transfection regardless of chloroquine [2]: Very low

Compound: N=C(N)NCCC[C@H](NC(=O)[C@H](CCCNC(=N)N)NC(=O)[C@H](CCCNC(=N)N)NC(=O)[C@H](Cc1c[nH]c2ccccc12)NC(=O)[C@H](CCCNC(=N)N)NC(=O)[C@H](CCCNC(=N)N)NC(=O)[C@H](CCCNC(=N)N)NC(=O)[C@H](Cc1c[nH]cn1)NC(=O)[C@H](Cc1c[nH]cn1)NC(=O)[C@H](Cc1c[nH]cn1)NC(=O)[C@@H](N)CS)C(=O)N[C@@H](Cc1c[nH]cn1)C(=O)N[C@@H](Cc1c[nH]cn1)C(=O)N[C@@H](Cc1c[nH]cn1)C(=O)N[C@@H](CS)C(=O)O [Peptide 10, CHHHRRRWRRRHHHC] (H-CHHHRRRWRRRHHHC-OH)
- viability at 24 h [7]: > 60%
- toxicity (cell viability studies) [8]: weak toxicity
- toxicity (cell viability studies) [9]: weak toxicity, if any
- cytotoxic effects (cell viability studies) [10]: no cytotoxic effects
- toxicity (cell viability studies) [11]: weak toxicity
